These results are taken from PubChem BioAssay AID179 (DTP/NCI, 2004).

The subject of the experiment is CEM cells HIV-1 protection, formazan growth assay. Kind of experiment: NCI AIDS Antiviral Assay. Conditions: for IC50: measured here: growth of uninfected CEM cells. In a few lines: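 Five concentrations of each compound were applied to infected and uninfected human CEM cells. Protection from HIV-1 was judged from growth measured with a soluble formazan assay.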

Calls of active or inactive are those of the source.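 Rule for the calls: active = compounds giving half or more protection of infected cells from virus-caused growth loss, again on retest; inactive = the rest.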 Where a SMILES comes first, the peptide text is derived from it. The star is where a group is joined. OBn = c1ccc(CO*)cc1

As a reminder, the EC50 is the concentration at which the effect is half-maximal. By IC50 is commonly meant the concentration at which inhibition is half-maximal. Lower therefore signals higher potency. For `COC(=O)c1cc(Br)c(C(=O)C(Cl)(Cl)Cl)[nH]1`, the EC50 is greater than 200 µM and the IC50 is greater than 200 µM. Consider `CC1=C(C(=O)Nc2ccccc2)C2(CCCCC2)C(C#N)=C(SCC(=O)Nc2ccc(Br)cc2)N1`, for which the EC50 is greater than 200 µM and the IC50 came to 12.3 µM. In the case of `O=C(CC(=O)C1CCOC1=O)C(=O)Nc1cccc(Cl)c1` (stereo unspecified), the result was inactive. For the molecule `C[Si](C)(C)/C=C\CCNCc1ccccc1`, the EC50 was greater than 776 µM and the IC50 is greater than 776 µM. As for `CC1(C)CNC[C@@](C)(OCc2ccccc2)C(=O)[N-]C(C)(C)CNC[C@@](C)(OCc2ccccc2)C(=O)[N-]1.[Ni+2]`, the EC50 was greater than 200 µM and the 50% inhibitory concentration (IC50) came out at 105 µM.

In the case of `Nc1cc([N+](=O)[O-])ccc1N1C(=O)CCCC1=O`, the EC50 was greater than 200 µM and the IC50 is greater than 200 µM.

Take `CC(=O)NC(C(=O)N1CCCC1C(=O)OCc1ccccc1)C(C)C` (stereo not drawn) (Ac-Val-Pro-OBn; configuration not given here): the EC50 is greater than 200 µM and the IC50 was determined as 112 µM. Take `CCN(CC)CCC(=O)c1ccc(Oc2ccc(F)cc2)cc1`: the EC50 was greater than 200 µM and the IC50 amounted to 22.9 µM. Regarding `CCOC(=O)c1ccc(N2C(=O)/C(=C\OC)c3ccccc3C2=O)cc1`, the outcome was inactive. In the case of `Cc1ccc(C)n1-n1c(-c2ccccc2)n[nH]c1=O`, the EC50 is greater than 200 µM and the IC50 worked out at 89.1 µM. `O=C1NC(=O)C(=Cc2ccccc2[N+](=O)[O-])C(=O)N1`: the result was inactive. `CCOC(=O)C(C#N)(Cc1ccc2ccccc2n1)Cc1ccc2ccccc2n1`: the EC50 was greater than 200 µM and the IC50 is greater than 200 µM. In the case of `COC(OC)[C@@H]1OC[C@H](n2ccc(=O)[nH]c2=O)[C@H]1O`, the EC50 was greater than 200 µM and the IC50 is greater than 200 µM. Take `Cc1cc(=O)oc2c3c(ccc12)OC(C)(C)[C@H](OC(=O)C12CCC(C)(C(=O)O1)C2(C)C)[C@@H]3OC(=O)C12CCC(C)(C(=O)O1)C2(C)C` (stereo partly specified): the EC50 is 0.0759 µM and the IC50 is greater than 200 µM.

On to `CC12CC(=O)CC1(C)CC(=O)C2` (stereo unspecified), for which the EC50 was greater than 537 µM and the IC50 was greater than 537 µM. For the molecule `O=C(CC(=O)N1N=C(n2ccc3ccccc32)CC1c1ccccc1)Nc1ccc(Cl)cc1` (stereo unspecified), the EC50 is greater than 1.2 µM and the IC50 is greater than 1.2 µM. As to `O=c1cc(-c2ccccc2)oc2cc(O)ccc12`, the EC50 was greater than 186 µM and the IC50 was found to be 85.1 µM. The matching figures for `CCOC(=O)c1cc(C2CCN(Cc3ccccc3)C2=O)c(C(=O)/C=C(/C)N)[nH]1` (stereo unspecified): greater than 200 µM and 158 µM. Turning to `CCOC(=O)c1c(C(CC)C(=O)OC(C)C)cc2n(c1=O)Cc1c-2nc2ccccc2c1Cl` (stereo unspecified), the EC50 is greater than 10 µM and the IC50 was greater than 10 µM. With `c1ccc2c(c1)oc1cc3c(cc12)nnc1cccn13`, the EC50 was greater than 200 µM and the half-inhibitory concentration (IC50) was greater than 200 µM. Regarding `COC(=O)c1nc(=S)[nH]c(C(=O)OC)c1C(=O)/C=C/c1ccccc1`, the EC50 was greater than 191 µM and the IC50 worked out at 120 µM. Turning to `CC(=O)C1CC2(C(=O)C1=O)c1ccccc1-c1ccccc12` (stereo unspecified), the result was inactive. On to `CCOP(=O)(OCC)OC1C=CC2CCC1C2` (stereo unspecified), for which the EC50 was greater than 191 µM and the IC50 was greater than 191 µM. In the case of `CC1CC(C#N)=C2NCCN2C1=O` (stereo unspecified), the EC50 is greater than 200 µM and the IC50 was greater than 200 µM. Regarding `CCOC(=O)CCCc1cc[c]([Sb](=[O])([OH])[OH])cc1`, the EC50 is greater than 200 µM and the IC50 amounted to 72.4 µM. The matching figures for `CCOC(=O)Nn1c(CC#N)nnc1Cc1ccccc1`: greater than 200 µM and greater than 200 µM.

On to `Cc1cc(NS(=O)(=O)c2ccc(Nc3c4ccccc4nc4c(C(N)=O)cccc34)cc2)no1`, for which the EC50 was greater than 200 µM and the IC50 was determined as 10.7 µM. The matching figures for `Cc1cccc(C(C)O)n1` (stereo unspecified): greater than 200 µM and greater than 200 µM. The matching figures for `O=C(c1ccc(F)cc1)c1cccc(C(=O)c2ccc(F)cc2)n1`: greater than 30.9 µM and greater than 30.9 µM. For the molecule `c1ccc(CNc2nnc(NCc3ccccc3)c3c2ncn3Cc2ccccc2)cc1`, the outcome was inactive. `O=c1c(OS(=O)(=O)O)c(-c2ccc(OS(=O)(=O)O)c(OS(=O)(=O)O)c2)oc2cc(OS(=O)(=O)O)cc(OS(=O)(=O)O)c12`: the EC50 was greater than 100 µM and the IC50 is 51.3 µM. For `CN1c2ccccc2NC(CC(=O)O)C2CC=CN21` (stereo unspecified), the EC50 is greater than 955 µM and the half-maximal inhibitory concentration (IC50) worked out at 631 µM. The matching figures for `COc1ccc(C(=O)/C=C/c2ccc(OCCSCCCCCCCCCCSCCOc3ccc(/C=C/C(=O)c4ccc(OC)cc4)cc3)cc2)cc1`: greater than 200 µM and greater than 200 µM. For the molecule `Nc1ccn(C2CCC(CO)O2)c(=S)n1` (stereo unspecified), the EC50 was greater than 200 µM and the half-maximal inhibitory concentration (IC50) was greater than 200 µM.

For the molecule `COc1ccc2nc3cccc([N+](=O)[O-])c3c(NCCC(=O)O)c2c1`, the EC50 was greater than 200 µM and the IC50 was 4.57 µM. For the molecule `CC[N+](C)(C)CC(O)(O)C(F)F`, the EC50 was greater than 200 µM and the IC50 is greater than 200 µM. On to `CCCCCCCCCCCCCCCCOC1OC(CCSSC2OC(OCCCCCCCCCCCCCCCC)C(O)C(O)C2O)C(O)C(O)C1O` (stereo unspecified), for which the EC50 was greater than 3.24 µM and the IC50 was greater than 3.24 µM.

Take `CC1CC/C(=C\c2ccc(Cl)cc2)c2nc(N)c(C#N)c(-c3ccc(Cl)cc3)c21` (stereo unspecified): the EC50 is greater than 200 µM and the 50% inhibitory concentration (IC50) was 155 µM. Regarding `COc1ccc(C(=O)C(C(=O)C(=O)Nc2nc3ccc(OC)cc3s2)c2ccc(OC)cc2)cc1` (stereo unspecified), the EC50 is greater than 38 µM and the concentration for half-maximal inhibition (IC50) is greater than 38 µM. For the molecule `O=C1OC(CCCl)(c2ccccc2)CC1CN1CCOCC1` (stereo unspecified), the EC50 was greater than 692 µM and the IC50 came to 10.5 µM.

Take `Cc1cccc(N=Nc2c(C)nn(C(=O)c3ccc(O)cc3)c2C)c1`: the outcome was inactive. On the same count and under the same terms, the value for `O=C(C=Nc1ccccc1C(=O)[O-])c1cccs1.O=C(C=Nc1ccccc1C(=O)[O-])c1cccs1.[Zn+2]` was “inactive”. On to `CC1/C(=N/O)CC(c2ccccc2)N(N=O)C1c1ccccc1` (stereo unspecified), for which the EC50 was greater than 200 µM and the IC50 was found to be 129 µM. The matching figures for `CCCc1cc(=O)oc2c3c(c4c(c12)OC(C)(C)[C@H](O)[C@@H]4O)O[C@@H](C)[C@H](C)[C@@H]3O`: greater than 200 µM and 87.1 µM. For `NCC1OC(n2cnc3c(N)ncnc32)CC1O` (stereo unspecified), the EC50 was greater than 200 µM and the IC50 was greater than 200 µM. In the case of `CC1=NN(C(=O)c2ccccc2O)C(=O)/C1=C/c1ccco1`, the EC50 was greater than 87.1 µM and the IC50 was determined as 0.603 µM. Turning to `CC(=O)O[C@H]1CC[C@@]2(C)C(=CC[C@@H]3C2CC[C@]2(C)Nc4c(cnn4-c4ccccc4)CC32)C1` (stereo partly specified), the result was inactive. As for `CC1CCCCCC(=O)c2c(O)cc(O)cc2CC(=O)O1` (stereo unspecified), the EC50 was greater than 851 µM and the IC50 was 117 µM. `O=C(Cc1ccccc1)N/N=C(/c1nc2ccc([N+](=O)[O-])cc2[nH]c1=O)C(O)c1ccccc1Cl` (stereo unspecified): the EC50 is greater than 72.4 µM and the IC50 was greater than 72.4 µM. Consider `CCOC(=O)NC1=NCC(C)S1` (stereo unspecified), for which the result was inactive. Regarding `Fc1ccc2nncc(SCc3ccccc3Cl)c2c1`, the EC50 is greater than 87.1 µM and the IC50 was 35.5 µM.

Consider `O=C(O)C(SC(=S)c1ccc(C(=S)SC(C(=O)O)c2ccccc2)cc1)c1ccccc1` (stereo unspecified), for which the result was inactive. Consider `CC(C)c1cccc(C(C)C)c1NC(=S)Nc1ccccc1`, for which the outcome was inactive. Take `C=CCCCC1(C)CCNC1=S` (stereo unspecified): the EC50 is greater than 513 µM and the IC50 is greater than 513 µM.

Consider `CC1=C(C#N)C(=C(C#N)C#N)OC1(C)Cc1ccccc1` (stereo unspecified), for which the EC50 was greater than 200 µM and the IC50 came to 112 µM. Consider `CCCc1ccc(OC2OC(COC(C)=O)C(OC(C)=O)C(OC(C)=O)C2OC(C)=O)cc1` (stereo unspecified), for which the EC50 was greater than 95.5 µM and the IC50 was greater than 95.5 µM.

Consider `COc1ccc(S(=O)(=O)N/N=C(\C)CN2C(=O)c3ccccc3C2=O)cc1`, for which the EC50 was greater than 129 µM and the IC50 was greater than 129 µM. Turning to `CCCCC1=C(C(=O)N2CCOCC2)C2(OCCO2)C1Cl` (stereo unspecified), the EC50 is greater than 58.9 µM and the IC50 was determined as 10 µM.

On to `CCOC(=O)/C(C#N)=C/c1cccc(Cl)c1`, for which the EC50 was greater than 79.4 µM and the IC50 is greater than 79.4 µM.

As for `COC(=O)C(Cc1ccccc1)NC(=O)c1ccc(CNC(=S)NCc2cccc(CNC(=S)NCc3ccccc3)c2)cc1` (stereo unspecified), the EC50 was greater than 200 µM and the IC50 was found to be 148 µM. In the case of `Cc1ccc(Nc2cc(=O)[nH]c(=S)[nH]2)cc1`, the EC50 is greater than 200 µM and the IC50 is greater than 200 µM. With `O=C1C2=Cc3ccccc3OC2(O)Oc2ccccc21` (stereo unspecified), the EC50 was greater than 200 µM and the IC50 came to 23.4 µM.

On to `O=C(NCc1ccccc1)/C(=C/c1ccc2c(c1)OCO2)NC(=O)c1ccccc1`, for which the EC50 was greater than 200 µM and the IC50 is greater than 200 µM. In the case of `Cc1c(O)nc(-n2[nH]c3c(c2=O)CCCC3)[nH]c1=O`, the EC50 is greater than 200 µM and the IC50 was greater than 200 µM. Regarding `Nc1nc2c(ncn2Cc2ccccc2CCO)c(=O)[nH]1`, the EC50 was greater than 47.9 µM and the half-maximal inhibitory concentration (IC50) is greater than 47.9 µM. As for `CC(C)OP(=O)(OC(C)C)C(N(C)C)P(=O)(OC(C)C)OC(C)C.[CH3][Sn]([CH3])([Cl])[Cl]`, the EC50 is greater than 302 µM and the IC50 stood at 17.4 µM.

On to `CC1=C(C(=O)NCc2ccccc2)C(/C=C/c2ccccc2)C(C(=O)NCc2ccccc2)=C(C)N1`, for which the outcome was inactive. For `COC(=O)CN1C(=O)c2cccc3cc([N+](=O)[O-])cc(c23)C1=O`, the EC50 is greater than 200 µM and the IC50 was determined as 21.9 µM. `N#CC1(C#N)C(C#N)(C#N)C12CCCCC2`: the EC50 is greater than 20 µM and the IC50 was determined as 10 µM. The matching figures for `CCCCCC(=O)N1SC(NC(=O)OC)=Nc2ccccc21`: greater than 155 µM and 8.32 µM. As to `CC[C@@H]1C[C@H]2CC3c4c(c5cc(OC)ccc5n4C)CCN(C2)C31`, the result was inactive. On to `Cc1ccc2cc(-c3ccccc3)c3ccc(C)nc3c2n1.Cc1ccc2cc(-c3ccccc3)c3ccc(C)nc3c2n1.O=C1OC(C(O)C[O-])C(O)=C1O.[Cu+]`, for which the EC50 was greater than 25.1 µM and the IC50 was 1.29 µM.
